Laboratory results as given in patent US20060069132A1, “Azolecarboxamide herbicides” (priority 2004, published 2006).

Columns and labels:
barnyardgrass [1] = test: Test B pre-/postemergence herbicide test; assay type: in vivo, Echinochloa crus-galli
Summary of the method: (§1)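 Greenhouse pot assay with simultaneous preemergence (treated seed) and postemergence (2–18 cm seedlings) applications of surfactant-containing, non-phytotoxic solvent formulations. Response scored visually 13–15 days later on a 0–100 scale, 100 meaning complete control.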

[2] = test system: small flower umbrella sedge; test: Test B flooded paddy test; assay type: in vivo, Cyperus difformis; details: 1000 g ai/ha, visual rating, scale 0 to 100 (0 no effect, 100 complete control), 13 to 15 days
Summary of the method: (§2)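 Greenhouse test; postemergence application to plants at 1–4 leaves (2–18 cm); paddy species at 2 leaves; evaluated visually vs controls at 13–15 days; scale 0–100 (100 = complete control).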

rice [3] = test: Test B pre-/postemergence herbicide test; assay type: in vivo, Oryza sativa
Summary of the method: (§3)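 Test chemicals in a non-phytotoxic solvent mixture with surfactant were applied preemergence to seeded species and postemergence to plants 2-18 cm tall (1- to 4-leaf stage); rice and barnyardgrass were also tested in a flooded paddy at the 2-leaf stage. Visual rating versus controls after 13-15 days in greenhouse, scale 0 (no effect) to 100 (complete control).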

velvetleaf [4] = test: Test B pre-/postemergence herbicide test; assay type: in vivo, Abutilon theophrasti
Summary of the method: as §3

large crabgrass [5] = test: Test B pre-/postemergence herbicide test; assay type: in vivo, Digitaria sanguinalis
Summary of the method: as §3

cocklebur = test: Test B pre-/postemergence herbicide test; assay type: in vivo, Xanthium strumarium
Summary of the method: as §1

large crabgrass [6] = test: Test A pre-/postemergence herbicide test; assay type: in vivo, Digitaria sanguinalis; details: for Plant response rating, Crabgrass, Large: Postemergence; for Crabgrass, Large plant response rating: Preemergence
Summary of the method: (§4)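 Seeds sown in sandy loam received a preemergence directed soil spray of compound in non-phytotoxic solvent with surfactant; postemergence plants (2–10 cm, one- to two-leaf stage) were sprayed to runoff at the same time. After ~10 days in greenhouse, injury was rated visually versus untreated controls (0 = no effect, 100 = complete control).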

pigweed = test: Test B pre-/postemergence herbicide test; assay type: in vivo, Amaranthus retroflexus
Summary of the method: as §3

ducksalad = test: Test B flooded paddy test; assay type: in vivo, Heteranthera limosa; details: 1000 g ai/ha, visual rating, scale 0 to 100 (0 no effect, 100 complete control), 13 to 15 days
Summary of the method: as §2

giant foxtail [7] = test: Test A pre-/postemergence herbicide test; assay type: in vivo, Setaria faberi; details: for Plant response rating, Foxtail, Giant: Postemergence; for Foxtail, Giant plant response rating: Preemergence
Summary of the method: as §4

blackgrass = test: Test B postemergence herbicide test; assay type: in vivo, Alopecurus myosuroides; details: scale 0 (no effect) to 100 (complete control)
Summary of the method: as §2

corn = test: Test B pre-/postemergence herbicide test; assay type: in vivo, Zea mays
Summary of the method: as §3

morningglory [8] = test: Test B pre-/postemergence herbicide test; assay type: in vivo, Ipomoea coccinea
Summary of the method: as §1

lambsquarters = test: Test B pre-/postemergence herbicide test; assay type: in vivo, Chenopodium album
Summary of the method: as §3

morningglory [9] = test: Test A pre-/postemergence herbicide test; assay type: in vivo, Ipomoea spp.; details: for Plant response rating, Morningglory: Postemergence; for Morningglory plant response rating: Preemergence
Summary of the method: as §4

giant foxtail [10] = test: Test B pre-/postemergence herbicide test; assay type: in vivo, Setaria faberi
Summary of the method: as §3

redroot pigweed = test: Test A pre-/postemergence herbicide test; assay type: in vivo, Amaranthus retroflexus; details: for Plant response rating, Pigweed: Postemergence; for Pigweed plant response rating: Preemergence
Summary of the method: as §4

velvetleaf [11] = test: Test A pre-/postemergence herbicide test; assay type: in vivo, Abutilon theophrasti; details: for Velvetleaf plant response rating: Preemergence
Summary of the method: as §4

barnyardgrass [12] = test: Test B flooded paddy test; assay type: in vivo, Echinochloa crus-galli; details: 1000 g ai/ha, visual rating, scale 0 to 100 (0 no effect, 100 complete control), 13 to 15 days
Summary of the method: as §2

wheat = test: Test B postemergence herbicide test; assay type: in vivo, Triticum aestivum; set-up: key to Wheat plant response rating: 0 = no effect, 100 = complete control; details: scale 0 (no effect) to 100 (complete control)
Summary of the method: (§5)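 Read-out: visual comparison with controls, scored 0 to 100, where 100 means complete control and 0 no effect. Formulated chemicals were applied postemergence to plants 2–18 cm tall (1- to 4-leaf), or to flooded-paddy plants at the 2-leaf stage, then held 13 to 15 days under glass.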

rice [13] = test: Test B flooded paddy test; assay type: in vivo, Oryza sativa; details: 1000 g ai/ha, visual rating, scale 0 to 100 (0 no effect, 100 complete control), 13 to 15 days
Summary of the method: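 Paddy species grown to the 2-leaf stage under flooding; blackgrass sprayed postemergence at 2–18 cm (1- to 4-leaf stage). Plants kept in a greenhouse for 13 to 15 days, then visually rated against controls on 0 (no effect) to 100 (complete control).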

wild oat = test: Test B postemergence herbicide test; assay type: in vivo, Avena fatua; details: scale 0 (no effect) to 100 (complete control)
Summary of the method: as §5

Surinam grass = test: Test B pre-/postemergence herbicide test; assay type: in vivo, Urochloa decumbens
Summary of the method: as §3

barnyardgrass [14] = test: Test A pre-/postemergence herbicide test; assay type: in vivo, Echinochloa crus-galli; details: for Plant response rating, Barnyardgrass: Postemergence; for Barnyardgrass plant response rating: Preemergence
Summary of the method: as §4

[15] = Postemergence, 500 g ai/ha, visual rating after 13 to 15 days, scale 0 (no effect) to 100 (complete control)
[16] = Preemergence, 500 g ai/ha, scale 0 to 100
[17] = postemergence, 125 g ai/ha, visual rating, scale 0 (no effect) to 100 (complete control)
[18] = preemergence, 125 g ai/ha, 0 to 100 scale, 0 is no effect, 100 is complete control
[19] = 500 g ai/ha, 0 to 100 scale, 0 no effect, 100 complete control
[20] = 2000 g ai/ha, 0 to 100 scale, 0 no effect, 100 complete control
[21] = 500 g ai/ha, visual rating, 0 to 100 scale (0 no effect, 100 complete control)
[22] = Postemergence, 500 g ai/ha, visual rating after 13 to 15 days
[23] = postemergence, 125 g ai/ha, visual rating

CCN(CC)C(=O)c1cc(NC(=O)c2cc(C(C)(C)C)nn2CC)ccc1F [Compound 59]
Plant response rating, Barnyardgrass (barnyardgrass [1]; [15]): 20
Barnyardgrass plant response rating (barnyardgrass [1]; [16]): 70
Barnyardgrass plant response rating (barnyardgrass [1]; [17]): 0
Plant response rating, Barnyardgrass (barnyardgrass [1]; [18]): 10
Sedge, Umbrella plant response rating [2]: 0
Rice plant response rating (rice [3]; [16]): 0
Plant response rating, Rice (rice [3]; [18]): 0
Plant response rating, Velvetleaf (velvetleaf [4]; [15]): 20
Velvetleaf plant response rating (velvetleaf [4]; [16]): 40
Velvetleaf plant response rating (velvetleaf [4]; [17]): 20
Plant response rating, Velvetleaf (velvetleaf [4]; [18]): 10
Plant response rating, Crabgrass, Large (large crabgrass [5]; [15]): 20
Crabgrass, Large plant response rating (large crabgrass [5]; [16]): 20
Crabgrass, Large plant response rating (large crabgrass [5]; [17]): 10
Plant response rating, Crabgrass, Large (large crabgrass [5]; [18]): 10
Plant response rating, Cocklebur (cocklebur; [15]): 40
Cocklebur plant response rating (cocklebur; [16]): 0
Cocklebur plant response rating (cocklebur; [17]): 10
Plant response rating, Cocklebur (cocklebur; [18]): 0
Plant response rating, Crabgrass, Large (large crabgrass [6]; [19]): 15
Plant response rating, Crabgrass, Large (large crabgrass [6]; [20]): 20
Crabgrass, Large plant response rating (large crabgrass [6]; [21]): 25
Crabgrass, Large plant response rating (large crabgrass [6]; [20]): 45
Plant response rating, Pigweed (pigweed; [15]): 80
Pigweed plant response rating (pigweed; [16]): 100
Pigweed plant response rating (pigweed; [17]): 70
Plant response rating, Pigweed (pigweed; [18]): 100
Ducksalad plant response rating (ducksalad): 0
Plant response rating, Foxtail, Giant (giant foxtail [7]; [19]): 15
Plant response rating, Foxtail, Giant (giant foxtail [7]; [20]): 20
Foxtail, Giant plant response rating (giant foxtail [7]; [21]): 5
Foxtail, Giant plant response rating (giant foxtail [7]; [20]): 65
Plant response rating, Blackgrass (blackgrass; [22]): 0
Blackgrass plant response rating (blackgrass; [23]): 0
Plant response rating, Corn (corn; [15]): 20
Corn plant response rating (corn; [16]): 0
Corn plant response rating (corn; [17]): 10
Plant response rating, Corn (corn; [18]): 0
Plant response rating, Morningglory (morningglory [8]; [15]): 20
Morningglory plant response rating (morningglory [8]; [16]): 10
Morningglory plant response rating (morningglory [8]; [17]): 20
Plant response rating, Morningglory (morningglory [8]; [18]): 0
Plant response rating, Lambsquarters (lambsquarters; [15]): 90
Lambsquarters plant response rating (lambsquarters; [16]): 100
Lambsquarters plant response rating (lambsquarters; [17]): 80
Plant response rating, Lambsquarters (lambsquarters; [18]): 90
Plant response rating, Morningglory (morningglory [9]; [19]): 10
Plant response rating, Morningglory (morningglory [9]; [20]): 10
Morningglory plant response rating (morningglory [9]; [21]): 10
Morningglory plant response rating (morningglory [9]; [20]): 40
Plant response rating, Foxtail, Giant (giant foxtail [10]; [15]): 20
Foxtail, Giant plant response rating (giant foxtail [10]; [16]): 40
Foxtail, Giant plant response rating (giant foxtail [10]; [17]): 0
Plant response rating, Foxtail, Giant (giant foxtail [10]; [18]): 0
Plant response rating, Pigweed (redroot pigweed; [19]): 40
Plant response rating, Pigweed (redroot pigweed; [20]): 75
Pigweed plant response rating (redroot pigweed; [21]): 90
Pigweed plant response rating (redroot pigweed; [20]): 100
Plant response rating, Velvetleaf (velvetleaf [11]; Postemergence, 2000 g ai/ha, 0 to 100 scale, 0 no effect, 100 complete control): 20
Velvetleaf plant response rating (velvetleaf [11]; [21]): 15
Velvetleaf plant response rating (velvetleaf [11]; [20]): 55
Barnyardgrass plant response rating (barnyardgrass [12]): 0
Plant response rating, Wheat (wheat; [22]): 10
Wheat plant response rating (wheat; [23]): 0
Rice plant response rating (rice [13]): 0
Plant response rating, Oat, Wild (wild oat; [22]): 20
Oat, Wild plant response rating (wild oat; [23]): 10
Plant response rating, Surinam Grass (Surinam grass; [15]): 20
Surinam Grass plant response rating (Surinam grass; [16]): 10
Surinam Grass plant response rating (Surinam grass; [17]): 10
Plant response rating, Surinam Grass (Surinam grass; [18]): 0
Plant response rating, Barnyardgrass (barnyardgrass [14]; [19]): 20
Plant response rating, Barnyardgrass (barnyardgrass [14]; [20]): 30
Barnyardgrass plant response rating (barnyardgrass [14]; [21]): 25
Barnyardgrass plant response rating (barnyardgrass [14]; [20]): 60
